Source: patent US11566002B2, “Substituted tetrahydrocyclopenta[C]pyrroles, substituted dihydropyrrolizines, analogues thereof, and methods using same” (priority 2018, dated 2023)

system: HBV rcDNA; assay: HepDE19 assay with bDNA quantitation of HBV rcDNA; format: cell-based, hepatitis B virus; conditions: HepDE19 cells, Tet-free medium, 7 day-incubation, rcDNA measured by Quantigene 2.0 bDNA assay, top concentration 25 μM; read-out: DE-19 bDNA EC50
Summary of the method: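 Cytotoxicity (CC50) measured by CellTiter-Glo ATP content in parallel plates, 5,000 cells/well, 4 days. Antiviral EC50 and EC90 derived from HBV rcDNA bDNA levels after 7-day compound exposure (top 25 μM, ½-log 8-point, 0.5% DMSO) of Tet-withdrawn HepDE19 cells at 50,000/well, as % inhibition versus untreated.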

Q: How did the EC50 turn out when Cn1cc2c(c1C(=O)Nc1ccc(F)c(Cl)c1)CCC2NC(=O)OCC#CC1CC1 (single isomer, unassigned) [Compound 114, 3-Cyclopropylprop-2-yn-1-yl (1-((3-chloro-4-fluorophenyl)carbamoyl)-2-methyl-2,4,5,6-tetrahydrocyclopenta[c]pyrrol-4-yl)carbamate] was run?
A: 0.47 µM

Q: Which EC50 does the source give for Cn1cc2c(c1C(=O)Nc1ccc(F)c(Cl)c1)CCC2NC(=O)OCC#CC1CC1 (single isomer, unassigned) [Compound 115, 3-Cyclopropylprop-2-yn-1-yl (1-((3-chloro-4-fluorophenyl)carbamoyl)-2-methyl-2,4,5,6-tetrahydrocyclopenta[c]pyrrol-4-yl)carbamate] here?
A: 5.4 µM

Q: For Cn1cc(COC(=O)NC2CCc3c2cn(C)c3C(=O)Nc2ccc(F)c(Cl)c2)nn1 (single isomer, unassigned) [Compound 116, (1-Methyl-1H-1,2,3-triazol-4-yl)methyl (1-((3-chloro-4-fluorophenyl)carbamoyl)-2-methyl-2,4,5,6-tetrahydrocyclopenta[c]pyrrol-4-yl)carbamate], which EC50 is on record?
A: 0.05 µM

Q: For Cn1cc(COC(=O)NC2CCc3c2cn(C)c3C(=O)Nc2ccc(F)c(Cl)c2)nn1 (single isomer, unassigned) [Compound 117, (1-Methyl-1H-1,2,3-triazol-4-yl)methyl (1-((3-chloro-4-fluorophenyl)carbamoyl)-2-methyl-2,4,5,6-tetrahydrocyclopenta[c]pyrrol-4-yl)carbamate], which EC50 is on record?
A: 6.1 µM

Q: For Cn1cc2c(c1C(=O)Nc1ccc(F)c(Cl)c1)CCC2NC(=O)OC[C@@H]1CCC(=O)N1 (single isomer, unassigned) [Compound 118], which EC50 is on record?
A: 0.16 µM

Q: Cn1cc2c(c1C(=O)Nc1ccc(F)c(Cl)c1)CCC2NC(=O)OC[C@@H]1CCC(=O)N1 (single isomer, unassigned) [Compound 119] was tested. Which EC50 did it give?
A: 1.9 µM

Q: For Cn1cc2c(c1C(=O)Nc1ccc(F)c(Cl)c1)CCC2NC(=O)OC[C@H]1CCC(=O)N1 (single isomer, unassigned) [Compound 120], which EC50 is on record?
A: 0.21 µM

Q: For Cn1cc2c(c1C(=O)Nc1ccc(F)c(Cl)c1)CCC2NC(=O)OC[C@H]1CCC(=O)N1 (single isomer, unassigned) [Compound 121], which EC50 is on record?
A: 4 µM

Q: For Cn1c(C(=O)Nc2ccc(F)c(Cl)c2)c2c(c1C(F)(F)F)C(NC(=O)OCc1nc[nH]n1)CC2 (single isomer, unassigned) [Compound 126, (1H-1,2,4-Triazol-3-yl)methyl (1-((3-chloro-4-fluorophenyl)carbamoyl)-2-methyl-3-(trifluoromethyl)-2,4,5,6-tetrahydrocyclopenta[c]pyrrol-4-yl)carbamate], which EC50 is on record?
A: 8.7 µM

Q: Which EC50 does the source give for Cn1c(C(=O)Nc2ccc(F)c(Cl)c2)c2c(c1C(F)(F)F)C(NC(=O)OCc1nc[nH]n1)CC2 (single isomer, unassigned) [Compound 127, (1H-1,2,4-Triazol-3-yl)methyl (1-((3-chloro-4-fluorophenyl)carbamoyl)-2-methyl-3-(trifluoromethyl)-2,4,5,6-tetrahydrocyclopenta[c]pyrrol-4-yl)carbamate] here?
A: 0.44 µM

Q: For Cn1ncc(COC(=O)NC2CCc3c2cn(C)c3C(=O)Nc2ccc(F)c(Cl)c2)n1 (single isomer, unassigned) [Compound 128, (2-Methyl-2H-1,2,3-triazol-4-yl)methyl (1-((3-chloro-4-fluorophenyl)carbamoyl)-2-methyl-2,4,5,6-tetrahydrocyclopenta[c]pyrrol-4-yl)carbamate], which EC50 is on record?
A: 1.7 µM

Q: Cn1ncc(COC(=O)NC2CCc3c2cn(C)c3C(=O)Nc2ccc(F)c(Cl)c2)n1 (single isomer, unassigned) [Compound 129, (2-Methyl-2H-1,2,3-triazol-4-yl)methyl (1-((3-chloro-4-fluorophenyl)carbamoyl)-2-methyl-2,4,5,6-tetrahydrocyclopenta[c]pyrrol-4-yl)carbamate] was tested. Which EC50 did it give?
A: 0.04 µM

Q: Which EC50 does the source give for Cc1c2c(c(C(=O)Nc3ccc(F)c(Cl)c3)n1C)CCC2NC(=O)OCc1c[nH]nn1 (single isomer, unassigned) [Compound 130, (1H-1,2,3-Triazol-4-yl)methyl (1-((3-chloro-4-fluorophenyl)carbamoyl)-2,3-dimethyl-2,4,5,6-tetrahydrocyclopenta[c]pyrrol-4-yl)carbamate] here?
A: 9 µM

Q: Which EC50 does the source give for Cc1c2c(c(C(=O)Nc3ccc(F)c(Cl)c3)n1C)CCC2NC(=O)OCc1c[nH]nn1 (single isomer, unassigned) [Compound 131, (1H-1,2,3-Triazol-4-yl)methyl (1-((3-chloro-4-fluorophenyl)carbamoyl)-2,3-dimethyl-2,4,5,6-tetrahydrocyclopenta[c]pyrrol-4-yl)carbamate] here?
A: 1.7 µM

Q: With Cn1c(C(=O)Nc2ccc(F)c(Cl)c2)c2c(c1C(F)(F)F)C(NC(=O)OCc1cn[nH]n1)CC2 (single isomer, unassigned) [Compound 132, (2H-1,2,3-Triazol-4-yl)methyl (1-((3-chloro-4-fluorophenyl)carbamoyl)-2-methyl-3-(trifluoromethyl)-2,4,5,6-tetrahydrocyclopenta[c]pyrrol-4-yl)carbamate] as the molecule, how does the EC50 read?
A: 13 µM

Q: For Cn1c(C(=O)Nc2ccc(F)c(Cl)c2)c2c(c1C(F)(F)F)C(NC(=O)OCc1cn[nH]n1)CC2 (single isomer, unassigned) [Compound 133, (2H-1,2,3-Triazol-4-yl)methyl (1-((3-chloro-4-fluorophenyl)carbamoyl)-2-methyl-3-(trifluoromethyl)-2,4,5,6-tetrahydrocyclopenta[c]pyrrol-4-yl)carbamate], which EC50 is on record?
A: 0.43 µM

Q: With Cn1c(Cl)c2c(c1C(=O)Nc1ccc(F)c(Cl)c1)CCCC2NC(=O)OCc1nc[nH]n1 (single isomer, unassigned) [Compound 134, (1H-1,2,4-Triazol-3-yl)methyl (3-chloro-1-((3-chloro-4-fluorophenyl)carbamoyl)-2-methyl-4,5,6,7-tetrahydro-2H-isoindol-4-yl)carbamate] as the molecule, how does the EC50 read?
A: 1.9 µM

Q: Which EC50 does the source give for Cn1c(Cl)c2c(c1C(=O)Nc1ccc(F)c(Cl)c1)CCCC2NC(=O)OCc1nc[nH]n1 (single isomer, unassigned) [Compound 135, (1H-1,2,4-Triazol-3-yl)methyl (3-chloro-1-((3-chloro-4-fluorophenyl)carbamoyl)-2-methyl-4,5,6,7-tetrahydro-2H-isoindol-4-yl)carbamate] here?
A: 0.18 µM

Q: With Cn1c(Cl)c2c(c1C(=O)Nc1ccc(F)c(Cl)c1)CCCC2NC(=O)OCc1cn[nH]n1 (single isomer, unassigned) [Compound 136, (2H-1,2,3-Triazol-4-yl)methyl (3-chloro-1-((3-chloro-4-fluorophenyl)carbamoyl)-2-methyl-4,5,6,7-tetrahydro-2H-isoindol-4-yl)carbamate] as the molecule, how does the EC50 read?
A: 1.2 µM

Q: Cn1c(Cl)c2c(c1C(=O)Nc1ccc(F)c(Cl)c1)CCCC2NC(=O)OCc1cn[nH]n1 (single isomer, unassigned) [Compound 137, (2H-1,2,3-Triazol-4-yl)methyl (3-chloro-1-((3-chloro-4-fluorophenyl)carbamoyl)-2-methyl-4,5,6,7-tetrahydro-2H-isoindol-4-yl)carbamate] was tested. Which EC50 did it give?
A: 0.16 µM

Q: How did the EC50 turn out when Cc1n[nH]nc1COC(=O)NC1CCc2c1cn(C)c2C(=O)Nc1ccc(F)c(Cl)c1 (single isomer, unassigned) [Compound 138, (5-Methyl-2H-1,2,3-triazol-4-yl)methyl (1-((3-chloro-4-fluorophenyl)carbamoyl)-2-methyl-2,4,5,6-tetrahydrocyclopenta[c]pyrrol-4-yl)carbamate] was run?
A: 0.86 µM

Q: For Cc1n[nH]nc1COC(=O)NC1CCc2c1cn(C)c2C(=O)Nc1ccc(F)c(Cl)c1 (single isomer, unassigned) [Compound 139, (5-Methyl-2H-1,2,3-triazol-4-yl)methyl (1-((3-chloro-4-fluorophenyl)carbamoyl)-2-methyl-2,4,5,6-tetrahydrocyclopenta[c]pyrrol-4-yl)carbamate], which EC50 is on record?
A: 3.6 µM

same assay, conditions: Hepatitis B virus, HepDE19, 168 h, read-out: DE-19 bDNA EC50 (μM), HepDE19 cells, Tet-free medium, 7 day-incubation, rcDNA measured by Quantigene 2.0 bDNA assay, top concentration 25 μM

Q: Which EC50 does the source give for Cn1c(Br)c2c(c1C(=O)Nc1ccc(F)c(Cl)c1)CCC2NC(=O)OCc1nc[nH]n1 (single isomer, unassigned) [Compound 125, (1H-1,2,4-Triazol-3-yl)methyl(3-bromo-1-((3-chloro-4-fluorophenyl)carbamoyl)-2-methyl-2,4,5,6-tetrahydrocyclopenta[c]pyrrol-4-yl)carbamate] here?
A: 0.04 µM

same assay, conditions: read-out: DE-19 bDNA EC50; HepDE19 cells, Tet-free medium, 7 day-incubation, rcDNA measured by Quantigene 2.0 bDNA assay, top concentration 25 μM

Q: Which EC50 does the source give for CCC#CCOC(=O)NC1CCc2c1cn(C)c2C(=O)Nc1ccc(F)c(Cl)c1 (single isomer, unassigned) [Compound 113, Pent-2-yn-1-yl(1-((3-chloro-4-fluorophenyl)carbamoyl)-2-methyl-2,4,5,6-tetrahydrocyclopenta[c]pyrrol-4-yl)carbamate] here?
A: 0.12 µM

Q: CCc1n[nH]nc1COC(=O)NC1CCc2c1cn(C)c2C(=O)Nc1ccc(F)c(Cl)c1 (single isomer, unassigned) [Compound 140, (5-Ethyl-2H-1,2,3-triazol-4-yl)methyl(1-((3-chloro-4-fluorophenyl)carbamoyl)-2-methyl-2,4,5,6-tetrahydrocyclopenta[c]pyrrol-4-yl)carbamate] was tested. Which EC50 did it give?
A: 12 µM

Q: How did the EC50 turn out when CCc1n[nH]nc1COC(=O)NC1CCc2c1cn(C)c2C(=O)Nc1ccc(F)c(Cl)c1 (single isomer, unassigned) [Compound 141, (5-Ethyl-2H-1,2,3-triazol-4-yl)methyl(1-((3-chloro-4-fluorophenyl)carbamoyl)-2-methyl-2,4,5,6-tetrahydrocyclopenta[c]pyrrol-4-yl)carbamate] was run?
A: 1.2 µM

Q: For Cn1cc2c(c1C(=O)Nc1ccc(F)c(Cl)c1)CCC2NC(=O)OCc1nnnn1C (single isomer, unassigned) [Compound 144, (1-Methyl-1H-tetrazol-5-yl)methyl(1-((3-chloro-4-fluorophenyl)carbamoyl)-2-methyl-2,4,5,6-tetrahydrocyclopenta[c]pyrrol-4-yl)carbamate], which EC50 is on record?
A: 0.06 µM
